Measurements published in PubChem BioAssay (NCI).
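Exposure lasted 48 hours, with cells grown in 96-well plates and compounds tested at five concentrations. TGI: total growth inhibition.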

Tests used:
Assay in all cases: inhibition of tumour cell growth, NCI panel, 48 h
786-0 renal = test system: 786-0 renal
A498 renal = test system: A498 renal
A549 NSCLC = test system: A549 NSCLC
ACHN renal = test system: ACHN renal
BT-549 breast = test system: BT-549 breast
CAKI-1 renal = test system: CAKI-1 renal
CCRF-CEM leukemia = test system: CCRF-CEM leukemia
COLO 205 colon = test system: COLO 205 colon
DU-145 prostate = test system: DU-145 prostate
EKVX NSCLC = test system: EKVX NSCLC
HCC-2998 colon = test system: HCC-2998 colon
HCT-116 colon = test system: HCT-116 colon
HCT-15 colon = test system: HCT-15 colon
HL-60(TB) leukemia = test system: HL-60(TB) leukemia
HOP-62 NSCLC = test system: HOP-62 NSCLC
HOP-92 NSCLC = test system: HOP-92 NSCLC
HS 578T breast = test system: HS 578T breast
HT29 colon = test system: HT29 colon
IGROV1 ovarian = test system: IGROV1 ovarian
K-562 leukemia = test system: K-562 leukemia
KM12 colon = test system: KM12 colon
LOX IMVI melanoma = test system: LOX IMVI melanoma
M14 melanoma = test system: M14 melanoma
MALME-3M melanoma = test system: MALME-3M melanoma
MCF7 breast = test system: MCF7 breast
MDA-MB-231 breast = test system: MDA-MB-231 breast
MDA-MB-435 = test system: MDA-MB-435
MDA-N = test system: MDA-N
MOLT-4 leukemia = test system: MOLT-4 leukemia
NCI-H226 lung = test system: NCI-H226 lung
NCI-H23 lung = test system: NCI-H23 lung
NCI-H460 lung = test system: NCI-H460 lung
NCI-H522 lung = test system: NCI-H522 lung
NCI/ADR-RES ovarian = test system: NCI/ADR-RES ovarian
OVCAR-3 ovarian = test system: OVCAR-3 ovarian
OVCAR-4 ovarian = test system: OVCAR-4 ovarian
OVCAR-5 ovarian = test system: OVCAR-5 ovarian
OVCAR-8 ovarian = test system: OVCAR-8 ovarian
PC-3 prostate = test system: PC-3 prostate
RPMI-8226 leukemia = test system: RPMI-8226 leukemia
RXF 393 renal = test system: RXF 393 renal
SF-268 CNS = test system: SF-268 CNS
SF-295 CNS = test system: SF-295 CNS
SF-539 CNS = test system: SF-539 CNS
SK-MEL-2 melanoma = test system: SK-MEL-2 melanoma
SK-MEL-28 melanoma = test system: SK-MEL-28 melanoma
SK-MEL-5 melanoma = test system: SK-MEL-5 melanoma
SK-OV-3 ovarian = test system: SK-OV-3 ovarian
SN12C renal = test system: SN12C renal
SNB-19 CNS = test system: SNB-19 CNS
SNB-75 CNS = test system: SNB-75 CNS
SR leukemia = test system: SR leukemia
SW-620 colon = test system: SW-620 colon
T-47D breast = test system: T-47D breast
TK-10 renal = test system: TK-10 renal
U251 CNS = test system: U251 CNS
UACC-257 melanoma = test system: UACC-257 melanoma
UACC-62 melanoma = test system: UACC-62 melanoma
UO-31 renal = test system: UO-31 renal

SMILES: CC(C)(C)OC(=O)NCCCNC1(c2cc3ccccc3s2)CCCCC1
- TGI (786-0 renal): 28.8 µM
- TGI (A498 renal): 29.8 µM
- TGI (A549 NSCLC): 27.2 µM
- TGI (ACHN renal): 33.6 µM
- TGI (BT-549 breast): 27 µM
- TGI (CAKI-1 renal): 26.8 µM
- TGI (CCRF-CEM leukemia): 40.3 µM
- TGI (COLO 205 colon): 27.8 µM
- TGI (DU-145 prostate): 32.2 µM
- TGI (EKVX NSCLC): 28.6 µM
- TGI (HCC-2998 colon): 14.3 µM
- TGI (HCT-116 colon): 24.8 µM
- TGI (HCT-15 colon): 29.5 µM
- TGI (HL-60(TB) leukemia): 28 µM
- TGI (HOP-62 NSCLC): 28.5 µM
- TGI (HOP-92 NSCLC): 22.6 µM
- TGI (HS 578T breast): 45.7 µM
- TGI (HT29 colon): 13.4 µM
- TGI (IGROV1 ovarian): 32.2 µM
- TGI (K-562 leukemia): 26.3 µM
- TGI (KM12 colon): 33.1 µM
- TGI (LOX IMVI melanoma): 35.2 µM
- TGI (M14 melanoma): 25 µM
- TGI (MALME-3M melanoma): 30.9 µM
- TGI (MCF7 breast): 30.6 µM
- TGI (MDA-MB-231 breast): 40.1 µM
- TGI (MDA-MB-435): 28.7 µM
- TGI (MDA-N): 28.8 µM
- TGI (MOLT-4 leukemia): 28.4 µM
- TGI (NCI-H226 lung): 46.1 µM
- TGI (NCI-H23 lung): 26.4 µM
- TGI (NCI-H460 lung): 30.5 µM
- TGI (NCI-H522 lung): 32 µM
- TGI (NCI/ADR-RES ovarian): 30.2 µM
- TGI (OVCAR-3 ovarian): 27.5 µM
- TGI (OVCAR-4 ovarian): 29.5 µM
- TGI (OVCAR-5 ovarian): 27.5 µM
- TGI (OVCAR-8 ovarian): 35.1 µM
- TGI (PC-3 prostate): 47.6 µM
- TGI (RPMI-8226 leukemia): 13.7 µM
- TGI (RXF 393 renal): 29.8 µM
- TGI (SF-268 CNS): 33.8 µM
- TGI (SF-295 CNS): 28.4 µM
- TGI (SF-539 CNS): 34.2 µM
- TGI (SK-MEL-2 melanoma): 37.6 µM
- TGI (SK-MEL-28 melanoma): 29.9 µM
- TGI (SK-MEL-5 melanoma): 27.3 µM
- TGI (SK-OV-3 ovarian): 26.2 µM
- TGI (SN12C renal): 30.5 µM
- TGI (SNB-19 CNS): 27.2 µM
- TGI (SNB-75 CNS): 30.2 µM
- TGI (SR leukemia): 28 µM
- TGI (SW-620 colon): 40.9 µM
- TGI (T-47D breast): 39.7 µM
- TGI (TK-10 renal): 32 µM
- TGI (U251 CNS): 74.8 µM
- TGI (UACC-257 melanoma): 30.8 µM
- TGI (UACC-62 melanoma): 31.4 µM
- TGI (UO-31 renal): 25.4 µM
